Assay results: patent publication US10570168B2, “2′ and/or 5′ amino-acid ester phosphoramidate 3′-deoxy adenosine derivatives as anti- cancer compounds” (NuCana plc, priority 2014, dated 2020)
pIC50: −log10 of the molar value.

Assays:
[1] = tested on: CCRF-CEM (TdT positive CEM); assay: ATP (ViaLight plus) cytotoxicity assay; format: cell-based, Human; details: for pIC50: Homo sapiens, CCRF-CEM
Protocol: (§1) Certain compounds of the invention were subjected to further studies to test the cytotoxic activity of certain compounds of the invention and also to measure their activity against 4 haematological cancer cell lines • TdT positive CEM (Human ALL) • TdT negative K562 (Human CML) • TdT negative H1-60 (Human ANLL) • RL (CRL-2261) non-HD lymphoma • The concentrations of the active metabolite dATP (Cordycepin triphosphate) in these cell lines was also measured. • The cytotoxic activity and the intracellular 3′-dATP concentrations were also studied in the presence of hENT1, Adenosine Kinase (AK) and Adenosine Deaminase pharmacological inhibitors in CEM and RL cancer cell lines. Said inhibitors that mimic known cancer resistance mechanisms. Methods Cell Culture
(§2) HL-60 (ATCC® CCL-240™), K562 (ATCC® CCL-243™), CCRF-CEM (ATCC® CRM-CCL-119™) and RL (ATCC® CRL-2261™) leukaemia cell lines, obtained from the American Type Culture Collection (ATCC), Middlesex. HL-60 and K562 cell lines are deoxynucleotidyl transferase-negative (TdT-ve), whereas CCRF-CEM cell line is TdT+ve.
(§3) HL-60, K562, CCRF-CEM and RL cell lines were cultured in RPMI-1640 medium (Sigma Aldrich, UK), which were supplemented with 10% Fetal Bovine Serum (FBS) (PAA Laboratories), 1% amphotericin B (5.5 ml) and 1% penicillin/streptomycin (5.5 ml) (PAA Laboratories) and grown in flasks at 37° C. incubator with 5% CO2.
(§4) The amount of ATP was used as a measurement of cell number and cell viability. ATP ViaLight™ plus assay kit (Lonza, USA: Product No. LT07-121) to detect ATP in cells treated in luminescence compatible 96 well plates (initial concentration of cells was 1×10^4 cells/well) with cordycepin and ProTides at concentrations of: 0, 0.1, 0.5, 1, 5 and 10 μM, followed by incubation for 72 hours at 37° C. incubator with 5% CO2. For inhibitor studies, 10 μM of NBTI or 1 μM EHNA or A-134974 was added and left for 5 minutes before adding the drugs (see section 5 for inhibitor details).
(§5) After incubation, 50 μl of cell lysis reagent was added to the 96 well plates to release the intracellular ATP, followed by 100 μl of ATP monitoring reagent (AMR). The luminescent values of each well were determined using FLUOstar OPTIMA microplate reader (BMG Labtech) which convert ATP into light by using luciferase enzyme. Therefore, the amount of luminescence produced was directly proportional to the amount of ATP.
(§6) Cell lines were treated in the same way as described above but before treatment with drugs, a number of inhibitors were added: • 1) Nitrobenzylthioinosine (NBTI) (Sigma-Aldrich, St. Louis, Mo., product # N2255) blocks nucleoside transporters • 2) EHNA hydrochloride (Sigma-Aldrich, St. Louis, Mo., product # E114) blocks adenosine deaminase • 3) Adenosine kinase inhibitor A-134974 dihydrochloride hydrate (Sigma-Aldrich, St. Louis, Mo., product # A2846): blocks adenosine kinase
(§7) The dose-response curves of cytotoxicity of the drugs was determined using non-linear regression analysis of percentage cell viability versus concentration and EC50 values were obtained. The intracellular assay was conducted in five replicates for each condition. Intracellular assay was determined using paired t test (two-tailed) analysis of 3′ATP/ATP concentration and p-values were obtained. For all the analysis, Prism Software program (GraphPad Software) was used and Microsoft Powerpoint® 2013 was used to plot the results.

HEL92.1.7 = assay: Solid tumour and haematological malignancy assay (CellTiterGlo); format: cell-based; details: Homo sapiens, HEL 92.1.7, 72 h, read-out: IC50 (absolute IC50)
Summary of the method: (§8)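 Compound pre-warmed to 37° C in medium, added to cells in duplicate; incubated 3 days in CO2 incubator; viability measured with CellTiterGlo. DMSO final 0.5%.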

HL-60 = assay: as above; format: cell-based; details: Homo sapiens, HL-60, 72 h, read-out: IC50 (absolute IC50)
Summary of the method: as §8

MiaPaCa-2 = assay: as above; format: cell-based; details: Homo sapiens, MIA PaCa-2, 72 h, read-out: IC50 (absolute IC50)
Summary of the method: as §8

K562 = assay: as above; format: cell-based; details: Homo sapiens, K562, 72 h; for pIC50: read-out: IC50 (absolute IC50)
Summary of the method: as §8

MCF7 = assay: as above; format: cell-based; details: Homo sapiens, MCF7, 72 h, read-out: IC50 (absolute IC50)
Summary of the method: as §8

HT29 = assay: as above; format: cell-based; details: Homo sapiens, HT-29, 72 h, read-out: IC50 (absolute IC50)
Summary of the method: as §8

RL (CRL-2261) = assay: ATP (ViaLight plus) cytotoxicity assay; format: cell-based
Protocol: as §1, §2, §3, §4, §5, §6, §7

HL-60 (TdT negative) = assay: ATP (ViaLight plus) cytotoxicity assay; format: cell-based, Human; details: for (FD) fold difference compared to Cordycepin = Cordycepin IC50/ProTide IC50: HL-60; for pIC50: Homo sapiens, HL-60, 72 h
Protocol: as §1, §2, §3, §4, §5, §7

K562 (TdT negative) = assay: ATP (ViaLight plus) cytotoxicity assay; format: cell-based, Human; details: for pIC50: Homo sapiens, K562, 72 h; for (FD) fold difference compared to Cordycepin = Cordycepin IC50/ProTide IC50: K562
Protocol: as §1, §2, §3, §4, §5, §7

Structure (SMILES) | (FD) fold difference compared to Cordycepin = Cordycepin IC50/ProTide IC50 ([1]; CEM (TdT+ve)) | pIC50 ([1]; 72 h, CEM (TdT+ve), 72 hours) | pIC50 (HEL92.1.7) | pIC50 (HL-60) | pIC50 (MiaPaCa-2) | pIC50 (K562) | pIC50 (MCF7) | pIC50 (HT29) | pIC50 (RL (CRL-2261); 72 h, CRL (RL, CRL-2261)) | (FD) fold difference compared to Cordycepin = Cordycepin IC50/ProTide IC50 (RL (CRL-2261); CRL (RL, CRL-2261)) | (FD) fold difference compared to Cordycepin = Cordycepin IC50/ProTide IC50 (HL-60 (TdT negative)) | pIC50 (HL-60 (TdT negative)) | pIC50 (K562 (TdT negative)) | (FD) fold difference compared to Cordycepin = Cordycepin IC50/ProTide IC50 (K562 (TdT negative)) | further results
COC(=O)C(C)(C)NP(=O)(OC[C@@H]1C[C@@H](O)[C@H](n2cnc3c(N)ncnc32)O1)Oc1cccc2ccccc12 (stereo partly drawn) [E, Methyl 2-(((((2S,4R,5R)-5-(6-amino-9H-purin-9-yl)-4-hydroxytetrahydrofuran-2-yl)-methoxy)(naphthalen-1-yloxy)phosphoryl)amino)-2-methylpropanoate] | (2) | 5.00 | 4.00 to 4.82 | 4.82 to 5.30 | 4.00 to 4.82 | 4.82 to 5.30 | 4.82 to 5.30 | 4.00 to 4.82 | 4.96 | (2) | (1) | 4.99 | 4.86 | (1) | (FD) fold difference compared to control ([1]; CEM, IC50 with AK inhibitor): (1); (FD) fold difference compared to control ([1]; CEM, IC50 with EHNA): (1); (FD) fold difference compared to control ([1]; CEM, IC50 with NBTI): (2); pIC50 ([1]; CEM, Control (no inhibitor)): 5.00; pIC50 ([1]; CEM, with AK (adenosine kinase inhibitor A-134974, 1 μM)): 4.99; pIC50 ([1]; CEM, with EHNA 1 μM (adenosine deaminase blocker)): 4.87; pIC50 ([1]; CEM, with NBTI 10 μM (nucleoside transporter blocker)): 4.77; Emax (K562; read-out: MI %): 90%; pIC50 (RL (CRL-2261); CRL, Control (no inhibitor)): 5.09; (FD) fold difference compared to control (RL (CRL-2261); CRL, IC50 with AK inhibitor): (1); (FD) fold difference compared to control (RL (CRL-2261); CRL, IC50 with EHNA): (1); (FD) fold difference compared to control (RL (CRL-2261); CRL, IC50 with NBTI): (1); pIC50 (RL (CRL-2261); CRL, with AK (adenosine kinase inhibitor A-134974, 1 μM)): 5.15; pIC50 (RL (CRL-2261); CRL, with EHNA 1 μM (adenosine deaminase blocker)): 5.23; pIC50 (RL (CRL-2261); CRL, with NBTI 10 μM (nucleoside transporter blocker)): 5.09
CCOC(=O)CCc1ccccc1OP(=O)(N[C@@H](C)C(=O)OCc1ccccc1)OC[C@@H]1C[C@@H](O)[C@H](n2cnc3c(N)ncnc32)O1 (stereo partly drawn) [F, (2S)-benzyl 2-(((((2S,4R,5R)-5-(6-amino-9H-purin-9-yl)-4-hydroxytetrahydrofuran-2-yl)methoxy)(2-(3-ethoxy-3-oxopropyl)phenoxy)phosphoryl)amino)propanoate] | (5) | 5.37 | 4.82 to 5.30 | 4.82 to 5.30 | 4.82 to 5.30 | 5.30 to 7.00 | 4.82 to 5.30 | 4.00 to 4.82 | 5.47 | (7) | (1) | 5.08 | 5.20 | (2) | –
